Biological target: T1, AC2aCel5A (Bacteroidetes bacterium AC2a, UniProt A0A076MPD7, E189A)
T1 construct: signal peptide (residues 1-18) removed; mature 397 residues + C-terminal eight-residue His6-tag (405 residues), tag kept; synthetic gene, pNIC-CH, Escherichia coli
Test: X-ray crystal structure (co-crystallization with […] cellotetraose)
Assay type: binding
Settings: 2.4 Å; subsites -3 to -1, molecule A only; crystals from 0.2 M potassium nitrate, 20% w/v PEG 3350; catalytically inactive mutant; authors consider that bound ligand is likely cellotetraose with fourt

T1 sequence (A0A076MPD7 entry or part of it E189A): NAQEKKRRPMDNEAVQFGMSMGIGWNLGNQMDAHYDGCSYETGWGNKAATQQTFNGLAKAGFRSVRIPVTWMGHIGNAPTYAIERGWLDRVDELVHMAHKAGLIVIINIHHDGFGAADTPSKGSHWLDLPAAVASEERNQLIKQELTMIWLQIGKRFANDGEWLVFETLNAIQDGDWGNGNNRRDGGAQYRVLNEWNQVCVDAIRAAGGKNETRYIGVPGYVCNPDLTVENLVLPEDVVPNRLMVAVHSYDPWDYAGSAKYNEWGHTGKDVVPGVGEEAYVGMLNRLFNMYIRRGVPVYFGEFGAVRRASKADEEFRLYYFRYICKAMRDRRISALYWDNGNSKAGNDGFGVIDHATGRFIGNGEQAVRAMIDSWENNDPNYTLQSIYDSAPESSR

Structure (SMILES): OC[C@H]1O[C@@H](O[C@H]2[C@H](O)[C@@H](O)[C@H](O[C@H]3[C@H](O)[C@@H](O)C(O)O[C@@H]3CO)O[C@@H]2CO)[C@H](O)[C@@H](O)[C@@H]1O (stereo partly shown) [cellotriose]
- X-ray crystal structure (co-crystallization with 5 mM cellotetraose): Additional electron density was observed in the active-site cleft of molecule A, and was refined

Source: article PMC4488959, “Structural Features of a Bacteroidetes-Affiliated Cellulase Linked with a Polysaccharide Utilization Locus” (Scientific Reports, 2015)
